Data from a melting point compilation (Tetko et al.; mined from patent text by program, amines drawn as free bases though some values may be those of a salt).

| Compound | melting point [°C] |
| --- | --- |
| CC(C)(c1ccccc1)C(S)C(=O)O (stereo unspecified) | 70 to 73 |
| CCOC(=O)c1ncc2c(c1COC)c1c(OCc3ccccc3)cccc1n2S(=O)(=O)c1ccc(C)cc1 | 149 to 150 |
| CC(NC1=C(N=Nc2ccccc2)C(=O)SC1)c1ccccc1 (stereo unspecified) | 129 to 130 |
| O=C(c1ccccc1)N(c1ccccc1)c1ccc(O)cc1 | 257 to 260 |
| CCCCCCCCCCCCCCCC(=O)OC(COCc1ccc(OC)cc1)COC(=O)CCCCCCCCCCCNC(=O)OCc1ccccc1 (stereo unspecified) | 44 to 47 |
| CCC1(CC)C(=O)NC(C)(C)C(C)(C)N1OC(C)(C)C#N | 140 to 145 |
| CCOC(=O)c1c(CCl)nc2sc(C)c(C)c2c1-c1ccc(OC)c(OC)c1 | 162 to 163 |
| CCC(Nc1ncnc2c1ncn2C1OC(CO)C(O)C1O)c1ccccc1 (stereo unspecified) | 73 to 84 |
| CCOc1ccc(-c2ncc[nH]2)cc1 | 168 to 169 |
| O=C(c1ccccc1)[C@]1([N+](=O)[O-])[C@H](c2ccccc2)[C@H]2C[C@H](O)[C@@H]1C2 (relative stereo) | 168 to 169 |
| Cc1cc(OS(=O)(=O)C(F)(F)F)cc(=O)n1C | 65 to 67 |
| CC[C@H](C)COc1ccc(-n2cc(C(=O)O)cn2)cc1C#N | 184 to 186 |
| CC(=O)OCC(=O)C1(OC(C)=O)C(C)CC2C3CCC4=CC(=O)C=CC4(C)C3(F)C=CC21C (stereo unspecified) | 135 to 136 |
| CC(C)CCCC(C)C1CCC2C3CC=C4CC(N)CCC4(C)C3CCC12C (stereo unspecified) | 92 to 94 |
| CCS(=O)(=O)CCC(=O)NNC(=O)N1Cc2cccc(Cl)c2Oc2ccccc21 | 195 to 197 |
| O=c1c(-c2ccccc2O)coc2c(O)c(O)ccc12 | 240 to 242 |
| CCOC(=O)C=Cc1ccc(-c2ccccc2)cc1 | 88.6 |
| COCc1cc2c3ccccc3n(C)c(=O)n2n1 | 98 to 100 |
| COC(=O)c1cccc2[nH]nc(S(=O)(=O)NC(C)(C)C)c12 | 218 to 220 |
| CN(C)C1(c2ccc(F)cc2)CCC(=CC(=O)N2CCC(c3c[nH]c4ccccc34)C2)CC1 (stereo unspecified) | 109 to 112 |
| CCc1c(OC)c(Cl)cc(C(N)=O)c1OC | 83 to 84 |
| COC(=O)c1ccc(C2=NOC(P(=O)(OC)OC)C2)cc1 (stereo unspecified) | 93 |
| CCN(CC)C(=O)c1ccc(C(c2cccc(O)c2)N2CC(C)NCC2C)cc1 (stereo unspecified) | 175 to 177 |
| CC(=O)Nc1nc2c(Oc3cc(-c4ccc(C(F)(F)F)cc4NCc4cncn4C)ncn3)cccc2s1 | 263 to 265 |
| CC1(C)C(=O)Oc2ccc3ccc(Cn4ccnc4)cc3c21 | 135 to 136 |
| CC(C)CCCOc1ccc2[nH]ncc2c1 | 124 to 126 |

| Compound | melting point [°C] |
| --- | --- |
| CC(C)c1[nH]n(-c2c(Cl)cccc2Cl)c2nc(Cc3ccc(CC(=O)NCCN(C)C)cc3)nc(=O)c1-2 | 170 to 172 |
| NS(=O)(=O)c1cc(F)c(C(F)(F)F)cc1NC(=O)c1ccccc1 | 223 |
| Cc1ccc(N(C)S(=O)(=O)c2cccs2)c2[nH]c(-c3ncc(CCl)s3)cc12 | 194 to 195 |
| O=C(O)c1cnc(Nc2cccc(C(F)(F)F)c2)[nH]c1=O | 252 to 254 |
| C=CCOc1ccc(C2C(=O)Oc3c2cc(C(C)(C)C)cc3C(C)(C)C)cc1 (stereo unspecified) | 112 to 114 |
| CC(CCNC(=O)c1ccc(Cl)s1)n1ccnc1 (stereo unspecified) | 141 to 143 |
| CC1c2cc(O)ccc2-c2c1cc1cc(O)ccc1c2Cl (stereo unspecified) | 215 to 220 |
| Oc1ccc2c(c1)CCCC(c1ccccc1)=C2c1ccc(OCCCCCSCc2ccccn2)cc1 | 159 |
| Cc1cc(O)ccc1-c1nc2cc(O)cc(Br)c2o1 | 120 to 135 |
| O=C(CCS)NC1(C(=O)O)CCCC1 | 127 to 128 |
| CC(=O)NCC1CN(c2ccc(N3CCN(c4nc5ccc(F)c(F)c5o4)CC3)c(F)c2)C(=O)O1 (stereo unspecified) | 213 to 214 |
| NC(Cc1nc2ccccc2nc1CP(=O)(O)O)C(=O)O (stereo unspecified) | 174 |
| O=C1NCC(c2ccccc2)N1CCCS (stereo unspecified) | 97 to 99 |
| CCCC(=O)Nc1c(C)c(C)c2c(c1C)C(c1ccc(C)cc1)C(C)(C)O2 (stereo unspecified) | 138 to 139 |
| COc1cc(-c2nccn2N=Cc2ccc(N(C)C)cc2)cc(OC)c1OC | 232 |
| COc1cccc(NS(=O)(=O)c2sccc2C2OCCO2)c1 | 112 to 114 |
| CCOC(=O)c1cc2occc2nc1C(=O)OCC | 60 to 64 |
| CC(=O)Oc1ccc(C(=O)NNC(=O)c2occ(-c3ccccc3)c2-c2ccccc2)cc1C#N | 131 to 133 |
| CCN1CCN(Cc2cc(-c3ccc4c(Nc5ccc(Cl)cc5Cl)c(C#N)cnc4c3)cs2)CC1 | 182 to 184 |
| CNC(=O)c1c(-c2ccccc2)oc(-c2ccccc2)cc1=O | 196 to 197 |
| CC1(C)CC(=O)c2c(SCc3ccccc3)sc(-c3cc[nH]n3)c2C1 | 215 to 218 |
| O=C(O)c1ccc(OCCF)cc1 | 135 |
| CNC(=O)C1CN(CCCC(c2ccc(F)cc2)c2ccc(F)cc2)CCN1CC(=O)Nc1c(C)cc(C)cc1C (stereo unspecified) | 90.2 |
| CCOCCOc1c(C)cc(C#CC2(O)CN3CCC2CC3)cc1C (stereo unspecified) | 113 to 115 |
| CC(C)=C1c2ccccc2-c2ccccc21 | 112 to 113 |
| CN(C)c1ccc(C(=O)C#Cc2cccc(OCc3ccccc3)c2)cc1 | 134 to 136 |

| Compound | melting point [°C] |
| --- | --- |
| CC(=O)OCC(C)(C)C(=O)N(O)Cc1ccccc1Cl | 78 to 80 |
| CC(C)c1nn2ccccc2c1S(=O)(=O)c1ccc(O)cc1 | 146 |
| COC(=O)C1CCC2C3CCC4CC(OC(C)=O)C(OC)CC4(C)C3C(NC3CCCCC3)CC12C (stereo unspecified) | 87 to 89 |
| Nc1ccc2oc(-c3ccccc3)c(O)c(=O)c2c1 | 211 to 212 |
| CCN1CCCC1CNC(=O)c1cc(S(N)(=O)=O)cc2c1OCCO2 (stereo unspecified) | 160 to 161 |
| C[C@H](NC(=O)c1c[nH]c2ncc(-c3cn(-c4cccc(Cl)c4)cn3)nc12)C(C)(C)C | 337 to 339 |
| CCC(CC)Nc1cc(C)nc(Oc2c(C)cc(C)cc2C)c1C(N)=O | 85 to 88 |
| O=C(O)c1ccc2c(c1)COC2c1ccc(F)cc1 (stereo unspecified) | 187 to 190 |
| Cc1cccc(-c2nc3ccc(OCCCCl)cc3n2Cc2ccccc2)c1 | 97 |
| COc1ccc(C(=C/C=C/C(=O)NCCCc2ccncc2)c2ccc(OC)cc2)cc1 | 90 to 92 |
| CC(C)(C)c1cc(OCCCCC(=O)O)cc(C(C)(C)C)c1 | 113 to 115 |
| C[Si](C)(C)CCc1nnc(N)nc1N | 203 to 204 |
| Cn1cnc2c1c1n[nH]c(=O)n1c(=O)n2Cc1ccccc1 | 295 |
| OCc1cc(-c2ccc3nnn(Cc4ccc5ncccc5c4)c3n2)cs1 | 188 to 191 |
| CC1(C)CC(=NO)CC(=NO)C1C#N (stereo unspecified) | 139 to 140 |
| c1csc(-c2cnc(COc3ccc(CCCCn4ccnc4)cc3)o2)c1 | 136 to 138 |
| CCn1c(=O)c2c(nc(/C=C/c3ccc(OC(C)=O)cc3)n2C)n(CC)c1=O | 198 |
| O=C(O)COc1cc(Cl)ccc1C(=O)NCCN1CCN(Cc2ccc(Cl)c(Cl)c2)CC1 | 118 to 120 |
| COc1cc(-n2c(C#N)c(C#N)n(C(F)F)c2=O)c(F)cc1Br | 150 |
| NC(=O)N1CCCC(=O)c2ccc(Cl)cc2CCC1=O | 182 to 184 |
| N#Cc1cnn2c1NCCC2 | 206 to 207 |
| COc1cccc2c1C(=O)N(CCl)S2(=O)=O | 169 to 174 |
| N#CC1(c2ccc(Cl)cc2)C2CC3CC(C2)CC1C3 (stereo unspecified) | 132 to 133 |
| Cn1c(S)nnc1COCC(=O)O | 155 to 156 |
| O=c1c(Br)c(N2CCC(c3ccccc3)CC2)ccn1CC1CC1 | 150 |
| COC(=O)C(Cl)Cc1cc(F)c(-n2c(=O)cc(C(F)(F)F)n(C)c2=O)cc1[N+](=O)[O-] (stereo unspecified) | 60 to 65 |

| Compound | melting point [°C] |
| --- | --- |
| CSc1nc(Cl)cc(P(C)(C)=O)n1 | 172 to 182 |
| CCS(=O)(=O)Nc1cc(C(=O)Nc2ccccc2)ccc1OC | 175 to 177 |
| CCOC(=O)CNc1ccc2c(c1)CCC2 | 49 |
| Cc1ccc(C(=O)Nc2ccc(N3CCOCC3)c(C(F)(F)F)c2)cc1Nc1nccc(-c2cccnc2)n1 | 216 to 218 |
| N#CCCCc1ccc2ccccc2c1O | 76 to 78 |
| CCC(C)c1ccccc1SC1=C(O)CC(CCc2ccccc2)(c2ccccc2)OC1=O (stereo unspecified) | 67 to 68 |
| Cc1ccc(CC2CCN(C(=O)C(=O)O)CC2)cc1 | 133 to 135 |
| Cc1ccc2[nH]c3c(cc(-c4cccc(C(=O)N5CCOCC5)c4)c(=O)n3C)c2c1 | 296 to 298 |
| OCC#Cc1cc(Cl)cc2nc(-c3ccccc3Cl)oc12 | 165 to 169 |
| CCOC(=O)C1=C(COCCn2c(C)nc3ccccc32)NC2=C(C(=O)C(C)(C)CC2)C1c1ccccc1Cl (stereo unspecified) | 118 to 120 |
| CCOC(=O)CNc1c(N)c(=O)c1=O | 231 to 233 |
| O=C(O)c1ccc(-c2ccc(OCc3ccccc3)cc2)cc1 | > 300 |
| CC(C)C[C@H](NC(=O)[C@H](Cc1c[nH]c2ccccc12)NC(=O)OC(C)(C)C)C(=O)O | 109 to 111 |
| CC(C)(C)[Si](OCCOc1ccc(/C=C/C(=O)O)c(Oc2ncc(C(F)(F)F)cc2Cl)c1)(c1ccccc1)c1ccccc1 | 153 |
| c1ccc(OCc2ccsc2)cc1 | 49 to 50 |
| NC(=O)CN1C(=O)[C@@H](NC(=O)c2ccccc2)[C@H](c2ccccc2)Sc2ccccc21 (relative stereo) | 246 to 248 |
| CCCCC(OC(=O)Nc1ccc(-c2ncn(-c3ccc(OC(F)(F)F)cc3)n2)cc1)C(=O)OCC (stereo unspecified) | 135 to 139 |
| CC1c2ccccc2NC(=O)N1CCCl (stereo unspecified) | 126 |
| CCOC(=O)/C=C/c1ccc2c(=O)n(CC(C)C)c(CNC(=O)OC(C)(C)C)c(-c3ccccc3)c2c1 | 147 to 148 |
| Cc1ccc(-c2nc(C(F)(F)F)nn2-c2ccc(S(C)(=O)=O)cc2)cc1 | 176 to 178 |
| CCSc1nc(O)nn1C(C)C | 109 to 114 |
| Cn1cc(C2=C(c3cccc(N4CCC(O)CC4)c3)C(=O)NC2=O)c2ccccc21 | 136 to 141 |
| O=[N+]([O-])c1oc2ccc(Cc3nnn[nH]3)cc2c1-c1ccccc1 | 245 to 247 |
